Results as given in article PMC7318359, “Stapled Peptides as HIF‐1α/p300 Inhibitors: Helicity Enhancement in the Bound State Increases Inhibitory Potency” (Chemistry (Weinheim an Der Bergstrasse, Germany), 2020).
Bridge positions count the residues as written; N and C are the ends. Ends that are not written are not given here. Peptide text beside a SMILES is read from it.

B1: HIF‐1α_(812–826) sE816C‐R820C (peptide, UniProt Q16665 812-826, looked up)
peptide: Ac-LLQGCELLCALDQVN
modifications: bridge 5-9; not fully specified (bridges)
notes: Made on Rink Amide MBHA resin, so probably a C-terminal amide; also called stapled peptide; dibromomaleimide stapled (s) E816C-R820C; source: synthetic peptide

Columns and labels:
HIF‐1α/p300 interaction = HIF‐1α/p300 interaction (Homo sapiens, UniProt Q09472); assay: Fluorescence anisotropy competition assay (displacement of FITC‐Ahx‐HIF‐1α786–826 tracer from p300); format: binding; details: p300 (100 nM); for IC50: FA competition, FITC‐Ahx‐HIF‐1α786–826 tracer, 20 mM Tris, 100 mM NaCl 0.1 mM DTT, pH 7.46, read after 45 minutes at room temperature, triplicate
Procedure: Fluorescence anisotropy assays were performed in 384‐well plates (Greiner Bio‐one). Each experiment was run in triplicate and the fluorescence anisotropy measured using a Perkin–Elmer EnVisionTM 2103 MultiLabel plate reader, with excitation at 480 nm (30 nm bandwidth), polarised dichroic mirror at 505 nm and emission at 535 nm (40 nm bandwidth, S and P polarised). All assays were performed in 20 mM Tris, 100 mM NaCl 0.1 mM DTT, pH 7.46 unless otherwise stated and data analysed following previously published methods.
Where I is the total intensity, G is an instrument factor which was set to 1 for all experiments and r is the anisotropy. The average anisotropy (across three experimental replicates) and the standard deviation of these values were then calculated and fit to a sigmoidal logistic model [Eq. (3)] using OriginPro 9.0 which provided the IC50 and error values: y = r max + (r min−r max)/(1+(x/xo) p).
FA competition assays were performed in 384 well plates with the concentration of peptide competitor typically starting from 850 μM, diluted over 16 points in 1/2 regime with fixed protein and tracer concentrations. […] For control wells, the tracer peptide was replaced with an identical volume of assay buffer. The total volume in each well was 60 μL. Plates were read after 45 minutes of incubation at room temperature.

p300 = p300 (UniProt Q09472 1-2414); assay: fluorescence polarisation; fluorescence anisotropy competition; peptide competitor diluted from about 850 μM over 16 points against fixed p300 (100 nM) and FITC tracer (25 nM in the legend, 50 nM in the methods); 20 mM Tris, 100 mM NaCl, 0.1 mM DTT, pH 7.46; 45 minutes at room temperature; details: both partners purified
p300, sequence (Q09472 whole entry): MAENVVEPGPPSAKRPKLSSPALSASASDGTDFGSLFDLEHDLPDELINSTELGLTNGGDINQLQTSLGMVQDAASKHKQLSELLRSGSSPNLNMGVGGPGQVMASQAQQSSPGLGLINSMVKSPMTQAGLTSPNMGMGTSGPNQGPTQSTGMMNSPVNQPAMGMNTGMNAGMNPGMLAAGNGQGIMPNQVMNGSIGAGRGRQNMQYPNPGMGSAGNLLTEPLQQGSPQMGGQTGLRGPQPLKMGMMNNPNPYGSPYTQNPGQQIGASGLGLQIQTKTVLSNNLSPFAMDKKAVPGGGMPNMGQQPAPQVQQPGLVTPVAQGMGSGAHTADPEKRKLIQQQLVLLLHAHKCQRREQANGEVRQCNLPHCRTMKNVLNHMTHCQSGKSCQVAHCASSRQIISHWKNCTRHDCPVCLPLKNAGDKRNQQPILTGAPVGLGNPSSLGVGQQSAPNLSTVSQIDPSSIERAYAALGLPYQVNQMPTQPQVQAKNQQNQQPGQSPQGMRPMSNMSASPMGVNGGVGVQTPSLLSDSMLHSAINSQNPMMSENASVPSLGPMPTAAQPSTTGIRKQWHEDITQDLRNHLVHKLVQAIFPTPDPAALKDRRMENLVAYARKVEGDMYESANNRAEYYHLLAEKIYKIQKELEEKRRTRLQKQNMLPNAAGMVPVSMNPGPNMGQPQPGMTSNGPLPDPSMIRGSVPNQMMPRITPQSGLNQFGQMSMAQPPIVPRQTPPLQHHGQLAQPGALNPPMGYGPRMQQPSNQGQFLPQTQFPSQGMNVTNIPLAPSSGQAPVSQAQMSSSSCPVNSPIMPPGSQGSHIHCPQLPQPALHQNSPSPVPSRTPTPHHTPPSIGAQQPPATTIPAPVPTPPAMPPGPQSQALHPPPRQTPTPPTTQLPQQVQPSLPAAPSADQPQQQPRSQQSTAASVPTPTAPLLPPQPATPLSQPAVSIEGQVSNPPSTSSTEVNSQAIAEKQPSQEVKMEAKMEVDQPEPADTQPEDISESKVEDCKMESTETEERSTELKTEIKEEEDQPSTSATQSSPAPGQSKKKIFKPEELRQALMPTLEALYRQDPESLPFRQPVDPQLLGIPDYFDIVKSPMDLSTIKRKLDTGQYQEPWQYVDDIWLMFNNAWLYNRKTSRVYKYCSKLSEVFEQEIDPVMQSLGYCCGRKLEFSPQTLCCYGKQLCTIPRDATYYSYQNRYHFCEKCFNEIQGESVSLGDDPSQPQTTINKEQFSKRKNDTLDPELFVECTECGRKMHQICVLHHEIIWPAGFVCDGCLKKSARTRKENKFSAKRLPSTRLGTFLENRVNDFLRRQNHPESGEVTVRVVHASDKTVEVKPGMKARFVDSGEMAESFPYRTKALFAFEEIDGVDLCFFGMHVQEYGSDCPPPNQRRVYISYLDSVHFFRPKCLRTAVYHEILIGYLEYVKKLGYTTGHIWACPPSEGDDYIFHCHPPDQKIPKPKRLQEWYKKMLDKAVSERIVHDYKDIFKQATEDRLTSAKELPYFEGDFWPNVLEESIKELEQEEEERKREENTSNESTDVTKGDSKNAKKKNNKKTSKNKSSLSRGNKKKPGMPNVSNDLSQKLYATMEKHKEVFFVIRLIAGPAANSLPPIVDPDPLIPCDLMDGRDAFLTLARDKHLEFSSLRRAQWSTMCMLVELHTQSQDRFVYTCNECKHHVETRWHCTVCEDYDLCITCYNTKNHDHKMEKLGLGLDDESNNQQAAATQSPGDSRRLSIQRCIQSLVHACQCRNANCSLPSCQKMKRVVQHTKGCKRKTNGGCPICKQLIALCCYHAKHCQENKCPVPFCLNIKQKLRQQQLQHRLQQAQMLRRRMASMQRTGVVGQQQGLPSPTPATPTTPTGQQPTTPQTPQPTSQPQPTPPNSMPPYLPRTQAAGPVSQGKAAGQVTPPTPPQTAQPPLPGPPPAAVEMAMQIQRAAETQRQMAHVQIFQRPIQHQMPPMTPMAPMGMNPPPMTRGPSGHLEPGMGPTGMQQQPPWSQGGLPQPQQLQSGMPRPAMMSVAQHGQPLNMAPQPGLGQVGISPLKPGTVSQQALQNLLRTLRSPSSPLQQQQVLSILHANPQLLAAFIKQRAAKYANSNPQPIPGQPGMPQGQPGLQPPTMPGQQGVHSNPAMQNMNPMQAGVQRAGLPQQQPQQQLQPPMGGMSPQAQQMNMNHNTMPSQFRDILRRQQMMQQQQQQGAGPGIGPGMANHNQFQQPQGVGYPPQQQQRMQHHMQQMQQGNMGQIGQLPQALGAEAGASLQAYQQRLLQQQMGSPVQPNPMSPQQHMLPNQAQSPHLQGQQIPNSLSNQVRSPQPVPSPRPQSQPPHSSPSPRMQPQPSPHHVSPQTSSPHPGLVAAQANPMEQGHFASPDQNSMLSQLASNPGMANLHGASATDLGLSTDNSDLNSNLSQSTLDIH

Molecule	IC50 (HIF‐1α/p300 interaction)	other results
CC(=O)N[C@@H](CC(C)C)C(=O)N[C@@H](CCC(N)=O)C(=O)NCC(=O)N[C@H]1CSSC[C@@H](C(=O)N[C@@H](C)C(=O)N[C@@H](CC(C)C)C(=O)N[C@@H](CC(=O)O)C(=O)N[C@@H](CCC(N)=O)C(=O)N[C@H](C(=O)N[C@@H](CC(N)=O)C(N)=O)C(C)C)NC(=O)[C@H](CC(C)C)NC(=O)[C@H](CC(C)C)NC(=O)[C@H](CCC(=O)O)NC1=O [HIF‐1α812–826 oxE816C‐R820C] (Ac-LQGCELLCALDQVN-NH2; disulfide 4-8)	> 600 µM	
Ac-LQGEELLRALDQVN-NH2 [wt‐HIF‐1α812–826, wild‐type HIF‐1α helix 3 peptide, N‐acetyl, C‐terminal amide]		Inhibition / tracer displacement in FA competition assay (HIF‐1α/p300 interaction; FITC‐Ahx‐HIF‐1α786–826 tracer (25 nM), pH 7.46): weak inhibition and could not fully displace tracer
CC(=O)N[C@@H](CC(C)C)C(=O)N[C@@H](CCC(N)=O)C(=O)NCC(=O)N[C@@H](CS)C(=O)N[C@@H](CCC(=O)O)C(=O)N[C@@H](CC(C)C)C(=O)N[C@@H](CC(C)C)C(=O)N[C@@H](CS)C(=O)N[C@@H](C)C(=O)N[C@@H](CC(C)C)C(=O)N[C@@H](CC(=O)O)C(=O)N[C@@H](CCC(N)=O)C(=O)N[C@H](C(=O)N[C@@H](CC(N)=O)C(N)=O)C(C)C [HIF‐1α812–826 redE816C‐R820C] (Ac-LQGCELLCALDQVN-NH2)	9.9 µM	
B1		IC50 (p300): 30.3 ± 5 µM
